# Experimental data taken from patent US20130225548A1, “Pyridine Derivative and Medicinal Agent” (NIPPON SHINYAKU CO., LTD., priority 2010, published 2013).
# Where a name gives a salt, the structure may show the parent alone.
# Biological target: T1, Syk tyrosine kinase (Homo sapiens, UniProt P43405)
# T1 construct: purchased Carna Biosciences, Inc
# Test: Test for Syk tyrosine kinase inhibitory activity (ELISA)
# Assay type: biochemical
# Conditions: Syk tyrosine kinase (Carna Biosciences), 25 μM ATP in substrate solution, 30° C. 1 hour, n=2; read-out: Evaluation (IC50, concentration inhibiting the tyrosine kinase activity at 50%)
# Protocol: Test Example 1: Test for Syk Tyrosine Kinase Inhibitory Activity
# 1. Preparation of Test Substance
# A test substance was prepared at 10 mM in dimethyl sulfoxide (DMSO), and further diluted with DMSO to concentrations of 1000, 300, 100, 30, 10, 3, 1, 0.3, 0.1, 0.03, and 0.01 μM. The resulting solutions were further diluted to 20-fold with an assay buffer, whereby test substance solutions were prepared. As a negative control, a solution obtained by diluting DMSO to 20-fold with an assay buffer was used. As the assay buffer, a buffer containing 15 mM Tris-HCl (pH 7.5), 0.01 (v/v) % Tween-20, and 1 mM dithiothreitol was used.
# 2. Measurement of Syk Tyrosine Kinase Inhibitory Activity
# The activity was measured using the ELISA method. Each of the test substance solutions was added to a streptavidine-coated 96-well place (DELFIA Strip Plate 8×12 wells, PerkinElmer Co., Ltd,) at 10 μL per well (n=2), and a substrate solution (625 nM biotinylated peptide substrate, 25 μM ATP, 25 mM MgCl2, 15 mM Tris-HCl (pH 7.5), 0.01 (v/v) % Tween-20, 1 mM dithiothreitol) was added to the plate at 20 μL per well, and the resulting mixture was stirred. Finally, Syk tyrosine kinase (Carna Biosciences, Inc.) (previously diluted to 0.025 nM with the assay buffer) was added to the plate at 20 μL per well, and the resulting mixture was stirred. A reaction was allowed to proceed at 30° C. for 1 hour. After the plate was washed 4 times with a washing buffer (50 mM Tris-HCl (pH 7.5, 150 mM NaCl, 0.02 (v/v) % Tween-20), a blocking buffer (0.1% bovine serum albumin, 50 mM Tris-HCl (pH 7.5), 150 mM NaCl, 0.02 (v/v) % Tween-20) was added to the plate at 150 μL per well, and blocking was performed at 30° C. for 30 minutes. Then, the blocking buffer was removed, and a horseradish peroxidase-labeled anti-phosphorylated tyrosine antibody (BD Biosciences, Inc.) (previously diluted to 10000-fold with the blocking buffer) was added to the plate at 100 μL per well, and the plate was incubated at 30° C. for 30 minutes. After the plate was washed 4 times with the washing buffer, a 3,3′,5,5′-tetramethylbenzidine solution (Sigma-Aldrich Co., Ltd.) was added to the plate at 100 μL per well to develop the color for 10 minutes. The reaction was stopped by adding 0.1 M sulfuric acid at 100 μL per well. The absorbance at 450 nm was measured using a microplate reader (Multiskan F C, Thermo Fisher Scientific K,K.).
# 3. Analysis of Measurement Results
# A non-linear regression analysis was performed for the measured absorbance using the SAS system (SAS institute. Inc.), and a concentration of each of the test substances: inhibiting the tyrosine kinase activity at 50% (IC50 ) was calculated. A case where IC50 is […] was evaluated as ***, a case where IC50 is 5 nM or more and less than 50 nM was evaluated as **, and a case where IC50 is 50 nM or more and less than 500 nM was evaluated as *, which are shown in the column of evaluation item.
row,Compound,IC50 [µM]
1,"N#Cc1ccnc(Nc2cc(C3CC3)cc(-c3ccc(N4CCC[C@H]4CO)nc3)n2)c1 [Example 48, 2-{(4-cyclopropyl-6′-[(2S)-2-(hydroxymethyl)pyrrolidin-1-yl]-2,3′-bipyridin-6-yl}amino)pyridine-4-carbonitrile hydrochloride]",0.05 to 0.5
2,"N#Cc1ccnc(Nc2cc(C3CC3)cc(-c3ccc(N4CC[C@@H](N)C4)nc3)n2)c1 [Example 49, 2-({6′-[(3R)-3-aminopyrrolidin-1-yl]-4-cyclopropyl-2,3′-bipyridin-6-yl}amino)pyridine-4-carbonitrile dihydrochioride]",0.005 to 0.05
3,"CC(=O)N[C@@H]1CCN(c2ccc(-c3cc(C4CC4)cc(Nc4cc(C#N)ccn4)n3)cn2)C1 [Example 50, N-[(3R)-1-{6-[(4-cyanopyridin-2-yl)amino]-4-cyclopropyl-2,3′-bipyridin-6′-yl}pyrrolidin-3-yl]acetamide hydrochloride]",0.05 to 0.5
4,"N#Cc1ccnc(Nc2cc(C3CC3)cc(-c3ccc(N4CC[C@@H](F)C4)nc3)n2)c1 [Example 51, 2-({4-cyclopropyl-6′-[(3R)-3-fluoropyrrolidin-1-yl]-2,3′-bipyridin-6-yl}amino)pyridine-4-carbonitrile hydrochloride]",0.05 to 0.5
5,"CN(C)[C@@H]1CCN(c2ccc(-c3cc(C4CC4)cc(Nc4cc(C#N)ccn4)n3)cn2)C1 [Example 52, 2-({4-cyclopropyl-6′-[(3R)-3-(dimethylamino)pyrrolidin-1-yl]-2,3′-bipyridin-yl}amino)pyridine-4-carbonitrile hydrochloride]",0.05 to 0.5
6,"N#Cc1ccnc(Nc2cc(C3CC3)cc(-c3ccc(N4CCCC4=O)nc3)n2)c1 [Example 53, 2-{[4-cyclopropyl-6′-(2-oxopyrrolidin-1-yl)-2,3′-bipyridin-6-yl]amino}pyridine-4-carbonitrile hydrochloride]",0.05 to 0.5
7,"Cc1ccc(-c2cc(C3CC3)cc(Nc3cc(C#N)ccn3)n2)cn1 [Example 54, 2-[(4-cyclopropyl-6′-methyl-2,3′-bipyridin-6-yl)amino]pyridine-4-carbonitrile hydrochloride]",0.05 to 0.5
8,"N#Cc1ccnc(Nc2cc(C3CC3)cc(-c3ccc4cn[nH]c4c3)n2)c1 [Example 55, 2-{[4-cyclopropyl-6-(1H-indazol-6-yl)pyridin-2-yl]amino}pyridine-4-carbonitrile hydrochloride]",0.005 to 0.05
9,"N#Cc1ccnc(Nc2cc(C3CC3)cc(-c3ccc4[nH]ncc4c3)n2)c1 [Example 56, 2-{[4-cyclopropyl-6-(1H-indazol-5-yl)pyridin-2-yl]amino}pyridine-4-carbonitrile hydrochloride]",0.005 to 0.05
10,"N#Cc1ccnc(Nc2cc(C3CC3)cc(-c3ccc(N4CCN(C(N)=O)CC4)nc3)n2)c1 [Example 57, 4-{6-[(4-cyanopyridin-2-yl)amino]-4-cyclopropyl-2,3′-bipyridin-6′-yl}piperazine-1-carboxamide hydrochloride]",0.005 to 0.05
11,"CS(=O)(=O)N1CCN(c2ccc(-c3cc(C4CC4)cc(Nc4cc(C#N)ccn4)n3)cn2)CC1 [Example 58, 2-({4-cyclopropyl-6′-[4-(methanesulfonyl)piperazin-1-yl]-2,3′-bipyridin-6-yl}amino)pyridine-4-carbonitrile hydrochloride]",0.005 to 0.05
12,"CC(=O)N1CCN(c2ccc(-c3cc(C4CC4)cc(Nc4cc(C#N)ccn4)n3)cn2)CC1 [Example 59, 2-{[6′-(4-acetylpiperazin-1-yl)-4-cyclopropyl-2,3′-bipyridin-6-yl]amino}pyridine-4-carbonitrile hydrochloride]",0.005 to 0.05
13,"N#Cc1ccnc(Nc2cc(C3CC3)cc(-c3ccc(N4CCC(C(=O)O)CC4)nc3)n2)c1 [Example 60, 1-{6-[(4-cyanopyridin-2-yl)amino]-4-cyclopropyl-2,3′-bipyridin-6′-yl}piperidine-4-carboxylic acid hydrochloride]",0.005 to 0.05
14,"N#Cc1ccnc(Nc2cc(C3CC3)cc(-c3ccc(N4CCC(C(N)=O)CC4)nc3)n2)c1 [Example 61, 1-{6-[(4-cyanopyridin-2-yl)amino]-4-cyclopropyl-2,3′-bipyridin-6′-yl}piperidine-4-carboxamide hydrochloride]",0.05 to 0.5
15,"N#Cc1ccnc(Nc2cc(C3CC3)cc(-c3ccc(N4CCC(C(N)=O)(c5ccc(F)cc5)CC4)nc3)n2)c1 [Example 62, 1-{6-[(4-cyanopyridin-2-yl)amino]-4-cyclopropyl-2,3′-bipyridin-6′-yl}-4-(4-fluorophenyl)piperidine-4-carboxamide hydrochloride]",0.005 to 0.05
16,"CNC(=O)CN1CCN(c2ccc(-c3cc(C4CC4)cc(Nc4cc(C#N)ccn4)n3)cn2)CC1 [Example 63, 2-(4-{6-[(4-cyanopyridin-2-yl)amino]-4-cyclopropyl-2,3′-bipyridin-6′-yl}piperazin-1-yl)-N-methylacetamide hydrochloride]",0.05 to 0.5
17,"N#Cc1ccnc(Nc2cc(C3CC3)cc(-c3ccc(N4CCC(NC(N)=O)CC4)nc3)n2)c1 [Example 64, 1-(1-{6-[(4-cyanopyridin-2-yl)amino]-4-cyclopropyl-2,3′-bipyridin-6′-yl}piperidin-4-yl)urea hydrochloride]",0.005 to 0.05
18,"N#Cc1ccnc(Nc2cc(C3CC3)cc(-c3ccc(NC4CCN(C(N)=O)CC4)nc3)n2)c1 [Example 65, 4-({6-[(4-cyanopyridin-2-yl)amino]-4-cyclopropyl-2,3′-bipyridin-6′-yl}amino)piperidine-1-carboxamide hydrochloride]",0.005 to 0.05
19,"N#Cc1ccnc(Nc2cc(C3CC3)cc(-c3ccc(N4CCNCC4=O)nc3)n2)c1 [Example 66, 2-{[4-cyclopropyl-6′-(2-oxopiperazin-1-yl)-2,3′-bipyridin-6-yl]amino}pyridine-4-carbonitrile hydrochloride]",0.05 to 0.5
20,"N#Cc1ccnc(Nc2cc(C3CC3)cc(-c3ccc(N4CCN(C(N)=O)CC4=O)nc3)n2)c1 [Example 67, 4-{6-[(4-cyanopyridin-2-yl)amino]-4-cyclopropyl-2,3′-bipyridin-6′-yl}-3-oxopiperazine-1-carboxamide hydrochloride]",0.05 to 0.5
21,"N#Cc1ccnc(Nc2cc(C3CC3)cc(-c3cncc(N4CCS(=O)(=O)CC4)c3)n2)c1 [Example 68, 2-{[4-cyclopropyl-5′-(1,1-dioxidethiomorpholin-4-yl)-2,3′-bipyridin-6-yl]amino}pyridine-4-carbonitrile hydrochloride]",0.05 to 0.5
22,"N#Cc1ccnc(Nc2cc(C3CC3)cc(-c3cncc(N4CCCN(C(N)=O)CC4)c3)n2)c1 [Example 69, 4-{6-[(4-cyanopyridin-2-yl)amino]-4-cyclopropyl-2,3′-bipyridin-5′-yl}-1,4-diazepane-1-carboxamide hydrochloride]",0.005 to 0.05
23,"N#Cc1ccnc(Nc2cc(C3CC3)cc(-c3ccc(CN4CCNC(=O)C4)nc3)n2)c1 [Example 70, 2-({4-cyclopropyl-6′-[(3-oxopiperazin-1-yl)methyl]-2,3′-bipyridin-6-yl}amino)pyridine-4-carbonitrile hydrochloride]",0.05 to 0.5
24,"N#Cc1ccnc(Nc2cc(C3CC3)cc(-c3ccc(CO)nc3)n2)c1 [Example 71, 2-{[4-cyclopropyl-6′-(hydroxymethyl)-2,3′-bipyridin-6-yl]amino}pyridine-4-carbonitrile hydrochloride]",0.05 to 0.5
25,"N#Cc1ccnc(Nc2cc(C3CC3)cc(-c3ccc(CN4CCS(=O)(=O)CC4)nc3)n2)c1 [Example 72, 2-({4-cyclopropyl-6′-[(1,1-dioxidethiomorpholin-4-yl)methyl]-2,3′-bipyridin-6-yl}amino)pyridine-4-carbonitrile hydrochloride]",0.005 to 0.05
26,"N#Cc1ccnc(Nc2cc(C3CC3)cc(-c3cncc(CN4CCNC(=O)C4)c3)n2)c1 [Example 73, 2-({4-cyclopropyl-5′-[(3-oxopiperazin-1-yl)methyl]-2,3′-bipyridin-6-yl}amino)pyridine-4-carbonitrile hydrochloride]",0.005 to 0.05
